Measured values: US9884821B2, “N1-cyclic amine-N5-substituted biguanide derivatives, methods of preparing the same and pharmaceutical composition comprising the same” (IMMUNOMET THERAPEUTICS INC., priority 2013, dated 2018)
Counter-ions that a name gives are not always drawn.

How the values were obtained:
HCT116 cells = assay: Effect of inhibiting cancer cell proliferation (MTT) in HCT116 cells; assay type: cell-based, human; conditions: Homo sapiens, HCT-116, 48 h; for inhibition at 100 µM: read-out: Cell growth inhibition (%) at 100 μM; for inhibition at 25 µM: read-out: Cell growth inhibition (%) at 25 μM
Text: HCT116 cells derived from human colorectal cancer were used, and an effect of inhibiting cancer cell proliferation of the biguanide derivative was confirmed by measuring a concentration value (cell growth inhibition concentration, GIC50) at which cell growth was inhibited by 50% using a 3-(4,5-dimethylthiazol-2-yl)-2,5-diphenyltetrazolium bromide (MTT) reagent.
First, HCT116 cells (purchased from the KCLB) were put on a 96-well plate and cultured in a DMEM medium supplemented with 10% fatal bovine serum (commercially available from Gibco Life Technologies (US)) for 16 hours so that approximately 5,000 cells were counted in each well. Subsequently, to obtain the GIC50 value of each compound, the culture media were treated with 100 μM, 25 μM, 6.25 μM, 1.56 μM or 0.39 μM of the compound, and then cultured for 48 hours. In order to determine whether the cells survived after treatment with the compounds, MTT (commercially available from AMRESCO (US)) was added to the culture media which were then cultured for another 3 hours. Formed formazane crystals were dissolved using dimethyl sulfoxide (DMSO) and the absorbance of the resulting solution was measured at 560 nm. After the 48-hour culture, a ratio of a living cell count on a well plate treated with the compounds synthesized in the Examples to a cell count cultured on a well plate not treated with the compound was indicated as cell viability (%) according to the concentration of each treated compound. The cell viability (%) was used to plot a cell viability curve graph and calculate a concentration (GIC50) value of the compound at which the growth was inhibited by 50%, thereby confirming the inhibition effect of cancer cell proliferation.

AMPK = AMPK activation effect (AMPK [pT172] ELISA) in MCF7 cells; assay type: cell-based, human; conditions: 24 hours; for AMPK activation effect (%) 10 μM / AMPK activation effect (%) 50 μM / AMPK activation effect (%) 5 μM: AMPKα Thr172 phosphorylation relative to untreated cells; for AC150: concentration at which AMPK activation reached 150%
Method: ELISA kit (Invitrogen, Catalog No. KH00651).
MCF7 cells were cultured in a DMEM medium supplemented with 10% fatal bovine serum (commercially available from Gibco Life Technologies (US)). Thereafter, the cultured MCF7 cells were put into a 6-well plate with approximately 5×10^5 cells per well, and cultured in an incubator supplied with 5% CO2. Culture media were treated with the derivatives synthesized in the Examples at concentrations of 5, 10 and 50 uM, and then cultured for 24 hours. […] Subsequently, the cells were lysed according to a method presented in the operation manual of the AMPK [pT172] ELISA kit, and 20 μg of a cell lysate was then yielded through protein assay. Thereafter, the AMPK activation effect was obtained by determining a degree of phosphorylation of a 172nd threonine residue (Thr172) of the AMPKα from the cell lysate according to the method presented in the operation manual of the AMPK [pT172] ELISA kit.

Compound	GI50 (HCT116 cells) [µM]	inhibition at 100 µM (HCT116 cells) [%]	AMPK activation effect (%) 10 μM (AMPK) [%]	AC150 (AMPK) [µM]	AMPK activation effect (%) 50 μM (AMPK) [%]	inhibition at 25 µM (HCT116 cells) [%]	AMPK activation effect (%) 5 μM (AMPK) [%]
CC1=CCN(C(=N)NC(=N)Nc2ccc(Cl)cc2)C1.Cl [Example 17, N1-(3-methyl)-1,2-dihydropyrrole-N5-(4-chloro)phenyl biguanide hydrochloride]	13.9	99.7	208	4.7	–	–	–
Cl.N=C(NC(=N)N1CC=CCC1)Nc1ccc(OC(F)(F)F)c(F)c1 [Example 34, N1-1,2,3,6-tetrahydropyridine-N5-(3-fluoro, 4-trifluoromethoxy)phenyl biguanide hydrochloride]	6.6	99.4	925	0.29	–	–	–
Cl.N=C(NCc1ccc(OC(F)(F)F)cc1)NC(=N)N1CC=CCC1 [Example 54, N1-1,2,3,6-tetrahydropyridine-N5-(4-trifluoromethoxy)benzyl biguanide hydrochloride]	14.6	98.1	545	0.87	650	–	–
CC1CCCC(C)N1C(=N)NC(=N)Nc1ccc(F)c(C(F)(F)F)c1.Cl (centres unmarked) [Example 93, N1-(2,6-dimethyl)piperidine-N5-(4-fluoro, 3-trifluoromethyl)phenyl biguanide hydrochloride]	3	–	422	2.0	–	100	190
Cl.N=C(NCc1cccc(OC(F)(F)F)c1)NC(=N)N1CC=CCC1 [Example 55, N1-1,2,3,6-tetrahydropyridine-N5-(3-trifluoromethoxy)benzyl biguanide hydrochloride]	22.8	97.9	389	2.1	608	–	–
Cl.N=C(NCc1ccc(Cl)c(C(F)(F)F)c1)NC(=N)N1CC=CCC1 [Example 58, N1-1,2,3,6-tetrahydropyridine-N5-(4-chloro, 3-trifluoromethyl)benzyl biguanide hydrochloride]	7.9	98.4	500	1.8	–	–	–
CC1CCCCN1C(=N)NC(=N)Nc1ccc(Cl)cc1.Cl (centres unmarked) [Example 77, N1-(2-methyl)piperidine-N5-(4-chloro)phenyl biguanide hydrochloride]	11.3	–	212	4.5	–	100	154
Cl.N=C(NC(=N)N1CC=CC1)Nc1ccc(Br)cc1 [Example 9, N1-1,2-dihydropyrrole-N5-(4-bromo)phenyl biguanide hydrochloride]	28.8	99.5	169	9.0	371	–	–
Cl.N=C(NC(=N)N1CC=CC1)Nc1ccc(OC(F)(F)F)c(Cl)c1 [Example 10, N1-1,2-dihydropyrrole-N5-(3-chloro,4-trifluoromethoxy)phenyl biguanide hydrochloride]	8.3	97.9	408	1.4	–	–	–
CC1CCCC(C)N1C(=N)NC(=N)Nc1ccc(Br)cc1 (centres unmarked) [Example 97, N1-(2,6-dimethyl)piperidine-N5-(4-bromo)phenyl biguanide hydrochloride]	9.1	–	233	4.2	–	100	143
Cl.N=C(NC(=N)N1CC=CCC1)Nc1ccc(Cl)c(C(F)(F)F)c1 [Example 33, N1-1,2,3,6-tetrahydropyridine-N5-(4-chloro, 3-trifluoromethyl)phenyl biguanide hydrochloride]	3.7	99.4	992	0.79	–	–	–
